Laboratory results from patent US11285156B2, “Substituted piperazines as KRAS G12C inhibitors” (Amgen Inc., priority 2018, dated 2022).

The compounds below were run against GDP-bound KRAS protein (aa 1-169), containing both G12C and C118A amino acid substitutions (Homo sapiens (Human), UniProt P01116, C118A/G12C) (assay: Coupled nucleotide exchange assay (SOS-mediated nucleotide exchange, AlphaScreen)). Conditions: 5 min compound pre-incubation.
GDP-bound KRAS protein (aa 1-169), containing both G12C and C118A amino acid substitutions, sequence (P01116 other isoform, or with tags, fused parts or gaps G12C/C118A): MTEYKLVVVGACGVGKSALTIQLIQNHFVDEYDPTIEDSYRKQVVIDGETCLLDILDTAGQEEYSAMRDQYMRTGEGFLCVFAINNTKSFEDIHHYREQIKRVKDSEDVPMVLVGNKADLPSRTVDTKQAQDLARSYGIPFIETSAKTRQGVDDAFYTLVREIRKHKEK
Assay type: biochemical
`[2H]C1([2H])N(C(=O)C=C)C([2H])([2H])C([2H])([2H])N(c2nc(=O)n(-c3c(C)ccnc3C(C)C)c3nc(-c4c(O)cccc4F)c(F)cc23)C1([2H])[2H]` (atropisomer, axis not shown; (M)) [Example 72-22, (M)-6-Fluoro-7-(2-fluoro-6-hydroxy-phenyl)-1-(2-isopropyl-4-methyl-3-pyridyl)-4-(2,2,3,3,5,5,6,6-octadeuterio-4-prop-2-enoyl-piperazin-1-yl)pyrido[2,3-d]pyrimidin-2-one] was tested, and the “Coupled exchange IC50 (5 min; μM)” value was 0.408 µM.

Same assay, conditions: read-out: Coupled exchange IC50 (5 min; μM); 5 min compound pre-incubation
In the case of `C=CC(=O)N1C[C@H](C)N(c2nc(=O)n(-c3c(C)ccnc3C(C)C)c3nc(N4CCCC4C(F)F)c(Cl)cc23)C[C@H]1C` (atropisomer, axis not shown; (M)) [Example 69-10, (M)-6-Chloro-7-[2-(difluoromethyl)pyrrolidin-1-yl]-4-[(2S,5R)-2,5-dimethyl-4-prop-2-enoyl-piperazin-1-yl]-1-(2-isopropyl-4-methyl-3-pyridyl)pyrido[2,3-d]pyrimidin-2-one], the IC50 is reported as 11 µM.
In the case of `C=CC(=O)N1C[C@H](C)N(c2nc(=O)n(-c3c(C)ccnc3C(C)C)c3nc(N4CCCCC4)c(Cl)cc23)C[C@H]1C` (atropisomer, axis not shown; (M)) [Example 69-11, (M)-6-Chloro-4-[(2S,5R)-2,5-dimethyl-4-prop-2-enoyl-piperazin-1-yl]-1-(2-isopropyl-4-methyl-3-pyridyl)-7-(1-piperidyl)pyrido[2,3-d]pyrimidin-2-one], the IC50 is reported as 1.14 µM.
`C=CC(=O)N1C[C@H](C)N(c2nc(=O)n(-c3c(C)ccnc3C(C)C)c3nc(-c4ccccc4P(C)(C)=O)c(F)cc23)C[C@H]1C` (atropisomer, axis not shown; (M)) [Example 72-23, (M)-7-(2-Dimethylphosphorylphenyl)-4-[(2S,5R)-2,5-dimethyl-4-prop-2-enoyl-piperazin-1-yl]-6-fluoro-1-(2-isopropyl-4-methyl-3-pyridyl)pyrido[2,3-d]pyrimidin-2-one] showed an IC50 of 0.647 µM.
`C=CC(=O)N1[C@@H]2CC[C@H]1CN(c1nc(=O)n(-c3c(C)ccnc3C(C)C)c3nc(-c4ccccc4F)c(Cl)cc13)C2` (atropisomer, axis not shown; (M)) [Example 79-10, (M)-6-Chloro-7-(2-fluorophenyl)-1-(2-isopropyl-4-methyl-3-pyridyl)-4-[(1S,5R)-8-prop-2-enoyl-3,8-diazabicyclo[3.2.1]octan-3-yl]pyrido[2,3-d]pyrimidin-2-one] was tested, and the IC50 was 2.78 µM.
`C=CC(=O)N1C[C@@H]2CC[C@H]1CN2c1nc(=O)n(-c2c(C)ccnc2C(C)C)c2nc(-c3ccccc3F)c(Cl)cc12` (atropisomer, axis not shown; (M)) [Example 79-11, (M)-6-Chloro-7-(2-fluorophenyl)-1-(2-isopropyl-4-methyl-3-pyridyl)-4-[(1S,4S)-5-prop-2-enoyl-2,5-diazabicyclo[2.2.2]octan-2-yl]pyrido[2,3-d]pyrimidin-2-one] showed an IC50 of 26.7 µM.
Compound `C=CC(=O)N1C[C@H]2CCC[C@@H](C1)N2c1nc(=O)n(-c2c(C)ccnc2C(C)C)c2nc(-c3ccccc3F)c(Cl)cc12` (atropisomer, axis not shown; (M)) [Example 79-12, (M)-6-Chloro-7-(2-fluorophenyl)-1-(2-isopropyl-4-methyl-3-pyridyl)-4-[(1S,5R)-3-prop-2-enoyl-3,9-diazabicyclo[3.3.1]nonan-9-yl]pyrido[2,3-d]pyrimidin-2-one] has an IC50 of 5.46 µM.
`C=CC(=O)N1C[C@H](C)N(c2nc(=O)n(-c3c(C)ccnc3C(C)C)c3nc(C=C(C)C)c(Cl)cc23)C[C@H]1C` (atropisomer, axis not shown; (M)) [Example 92-8, (M)-6-Chloro-4-[(2S,5R)-2,5-dimethyl-4-prop-2-enoyl-piperazin-1-yl]-1-(2-isopropyl-4-methyl-3-pyridyl)-7-(2-methylprop-1-enyl)pyrido[2,3-d]pyrimidin-2-one] gave an IC50 of 0.985 µM.
`C=CC(=O)N1C[C@H](C)N(c2nc(=O)n(-c3c(C)ccnc3C(C)C)c3nc(C4=CCOCC4)c(Cl)cc23)C[C@H]1C` (atropisomer, axis not shown; (M)) [Example 92-9, (M)-6-Chloro-7-(3,6-dihydro-2H-pyran-4-yl)-4-[(2S,5R)-2,5-dimethyl-4-prop-2-enoyl-piperazin-1-yl]-1-(2-isopropyl-4-methyl-3-pyridyl)pyrido [2,3-d]pyrimidin-2-one] was tested, and the IC50 was 8.53 µM.
With `C=CC(=O)N1C[C@H](C)N(c2nc(=O)n(-c3c(C)ccnc3C(C)C)c3nc(-c4cccc5c4NC(=O)C5)c(Cl)cc23)C[C@H]1C` (atropisomer, axis not shown; (M)) [Example 92-20, (M)-6-Chloro-4-[(2S,5R)-2,5-dimethyl-4-prop-2-enoyl-piperazin-1-yl]-1-(2-isopropyl-4-methyl-3-pyridyl)-7-(2-oxoindolin-7-yl)pyrido[2,3-d]pyrimidin-2-one] the IC50 was 0.403 µM.
Compound `C=CC(=O)N1C[C@H](C)N(c2nc(=O)n(-c3c(C)ccnc3C(C)C)c3[nH]c(=O)c(Cl)cc23)C[C@H]1C` (atropisomer, axis not shown; (M)) [Example 92-22, (M)-6-Chloro-4-[(2S,5R)-2,5-dimethyl-4-prop-2-enoyl-piperazin-1-yl]-1-(2-isopropyl-4-methyl-3-pyridyl)-8H-pyrido[2,3-d]pyrimidine-2,7-dione] has an IC50 of 2.94 µM.
Compound `C=CC(=O)N1C[C@H](C)N(c2nc(=O)n(-c3c(C)ccnc3C(C)C)c3nc(-c4cccc5cn[nH]c45)c(Cl)cc23)C[C@H]1C` (atropisomer, axis not shown; (M)) [Example 92-30, (M)-6-Chloro-4-[(2S,5R)-2,5-dimethyl-4-prop-2-enoyl-piperazin-1-yl]-7-(1H-indazol-7-yl)-1-(2-isopropyl-4-methyl-3-pyridyl)pyrido [2,3-d]pyrimidin-2-one] has an IC50 of 0.479 µM.
For `C=CC(=O)N1C[C@H](C)N(c2nc(=O)n(-c3c(C)ccnc3C(C)C)c3nc(-c4ccccc4NC(=O)C(C)(C)C)c(Cl)cc23)C[C@H]1C` (atropisomer, axis not shown; (M)) [Example 92-35, (M)-N-[2-[6-Chloro-4-[(2S,5R)-2,5-dimethyl-4-prop-2-enoyl-piperazin-1-yl]-1-(2-isopropyl-4-methyl-3-pyridyl)-2-oxo-pyrido[2,3-d]pyrimidin-7-yl]phenyl]-2,2-dimethyl-propanamide], the IC50 was 0.758 µM.
`C=CC(=O)N1C[C@H](C)N(c2nc(=O)n(-c3c(C)ccnc3C(C)C)c3nc(-c4ccsc4)c(Cl)cc23)C[C@H]1C` (atropisomer, axis not shown; (M)) [Example 92-50, (M)-6-Chloro-4-[(2S,5R)-2,5-dimethyl-4-prop-2-enoyl-piperazin-1-yl]-1-(2-isopropyl-4-methyl-3-pyridyl)-7-(3-thienyl)pyrido[2,3-d]pyrimidin-2-one] gave an IC50 of 1.1 µM.
In the case of `C=CC(=O)N1C[C@H](C)N(c2nc(=O)n(-c3c(C)ccnc3C(C)C)c3nc(-c4cccc(C(F)(F)F)c4)c(Cl)cc23)C[C@H]1C` (atropisomer, axis not shown; (M)) [Example 92-56, (M)-6-Chloro-4-[(2S,5R)-2,5-dimethyl-4-prop-2-enoyl-piperazin-1-yl]-1-(2-isopropyl-4-methyl-3-pyridyl)-7-[3-(trifluoromethyl)phenyl]pyrido [2,3-d]pyrimidin-2-one], the IC50 is reported as 0.591 µM.
`C=CC(=O)N1C[C@H](C)N(c2nc(=O)n(-c3c(C)ccnc3C(C)C)c3nc(-c4cncnc4C(C)C)c(Cl)cc23)C[C@H]1C` (atropisomer, axis not shown; (M)) [Example 92-68, (M)-6-Chloro-4-[(2S,5R)-2,5-dimethyl-4-prop-2-enoyl-piperazin-1-yl]-1-(2-isopropyl-4-methyl-3-pyridyl)-7-(4-isopropylpy-rimidin-5-yl)pyrido[2,3-d]pyrimidin-2-one] was tested, and the IC50 was 3.31 µM.
`C=CC(=O)N1C[C@H](C)N(c2nc(=O)n(-c3c(C)ccnc3C(C)C)c3nc(-c4cccnc4C4CC4)c(Cl)cc23)C[C@H]1C` (atropisomer, axis not shown; (M)) [Example 92-69, (M)-6-Chloro-7-(2-cyclopropyl-3-pyridyl)-4-[(2S,5R)-2,5-dimethyl-4-prop-2-enoyl-piperazin-1-yl]-1-(2-isopropyl-4-methyl-3-pyridyl)pyrido [2,3-d]pyrimidin-2-one] was tested, and the IC50 was 1.36 µM.
In the case of `C=CC(=O)N1C[C@H](C)N(c2nc(=O)n(-c3c(C)ccnc3C(C)C)c3nc(-c4cc(OC)cc5ccccc45)c(Cl)cc23)C[C@H]1C` (atropisomer, axis not shown; (M)) [Example 92-70, (M)-6-Chloro-4-[(2S,5R)-2,5-dimethyl-4-prop-2-enoyl-piperazin-1-yl]-1-(2-isopropyl-4-methyl-3-pyridyl)-7-(3-methoxy-1-naphthyl)pyrido [2,3-d]pyrimidin-2-one], the IC50 is reported as 0.6 µM.
For `C=CC(=O)N1C[C@H](C)N(c2nc(=O)n(-c3c(C)ccnc3C(C)C)c3nc(-c4nc(C)sc4C)c(Cl)cc23)C[C@H]1C` (atropisomer, axis not shown; (M)) [Example 92-71, (M)-6-Chloro-4-[(2S,5R)-2,5-dimethyl-4-prop-2-enoyl-piperazin-1-yl]-7-(2,5-dimethylthiazol-4-yl)-1-(2-isopropyl-4-methyl-3-pyridyl)pyrido [2,3-d]pyrimidin-2-one], the IC50 was 1.36 µM.
Work on `C=CC(=O)N1C[C@H](C)N(c2nc(=O)n(-c3c(C)ccnc3C(C)C)c3nc(-c4scnc4C)c(Cl)cc23)C[C@H]1C` (atropisomer, axis not shown; (M)) [Example 92-72, (M)-6-Chloro-4-[(2S,5R)-2,5-dimethyl-4-prop-2-enoyl-piperazin-1-yl]-1-(2-isopropyl-4-methyl-3-pyridyl)-7-(4-methylthiazol-5-yl)pyrido[2,3-d]pyrimidin-2-one] yielded an IC50 of 8.87 µM.
With `C=CC(=O)N1C[C@H](C)N(c2nc(=O)n(-c3c(C)ccnc3C(C)C)c3nc(-c4cc(F)ccc4F)c(F)cc23)C[C@H]1C` (atropisomer, axis not shown; (M)) [Example 94-3, (M)-7-(2,5-difluorophenyl)-4-[(2S,5R)-2,5-dimethyl-4-prop-2-enoyl-piperazin-1-yl]-6-fluoro-1-(2~ isopropyl-4-methyl-3-pyridyl)pyrido [2,3-d]pyrimidin-2-one] the IC50 was 0.684 µM.
